# According to patent US20070128217A1 (priority 2003, published 2007):
# Assays:
# [1] = test system: control sera (pooled serum of ten healthy LUMC hospital workers; commercial negative donor pooled serum from the Dutch bloodbank); type: binding, human; parameters: Binding of Control serum LUMC to linear peptides / Binding of Control serum Blood-bank to linear peptides / Binding of Control serum LUMC to looped peptides / Binding of Control Serum Blood-Bank to Looped peptides / Binding of Control serum LUMC to linear peptides of the protein M of SARS-CoV Urbani / Binding of Control serum Blood-bank to linear peptides of the protein M of SARS-CoV Urbani / Binding of Control serum LUMC to looped peptides of the protein M of SARS-CoV Urbani / Binding of Control Serum Blood-Bank to Looped peptides of the protein M of SARS-CoV Urbani: unit not given here
# [2] = test system: antibodies in sera from SARS patients (sera 1a, 1b, 2, 6, 37, 62, London, SARS-yellow, SARS-green); type: binding, human; parameters: Binding of serum 6 to linear peptides of protein X1 of SARS-CoV Urbani / Binding of serum 37 to linear peptides of protein X1 of SARS-CoV Urbani / Binding of serum 6 to looped/cyclic peptide (PEPSCAN-ELISA) / Binding of serum 37 to looped/cyclic peptide (PEPSCAN-ELISA) / Binding of serum 37 to looped/cyclic peptides of protein X1 of SARS-CoV Urbani / Binding of serum 6 to linear peptides of protein X2 / Binding of serum 37 to linear peptides of protein X2 / Binding of serum 37 to looped/cyclic peptides of protein X2 of SARS-CoV Urbani / Binding of serum 6 to linear peptides of protein M of SARS-CoV Urbani / Binding of serum 37 to linear peptides of protein M of SARS-CoV Urbani / Binding of serum 6 to looped/cyclic peptides of protein M of SARS-CoV Urbani / Binding of serum 37 to looped/cyclic peptides of protein M of SARS-CoV Urbani / Binding of serum 6 to linear peptides of protein X3 of SARS-CoV Urbani / Binding of serum 37 to linear peptides of protein X3 of SARS-CoV Urbani / Binding of serum 37 to looped/cyclic peptides of protein X3 of SARS-CoV Urbani / Binding of serum 6 to linear peptides of protein X4 of SARS-CoV Urbani / Binding of serum 37 to linear peptides of protein X4 of SARS-CoV Urbani / Binding of serum 37 to looped/cyclic peptides of protein X4 of SARS-CoV Urbani / Binding of serum 6 to linear peptides of protein X5 of SARS-CoV Urbani / Binding of serum 37 to linear peptides of protein X5 of SARS-CoV Urbani / Binding of serum 37 to looped/cyclic peptides of protein X5 of SARS-CoV Urbani / Binding of serum 6 to linear peptides of protein N of SARS-CoV Urbani / Binding of serum 37 to linear peptides of protein N of SARS-CoV Urbani / Binding of serum 6 to linear peptide (PEPSCAN-ELISA) / Binding of serum 1a to looped/cyclic peptides of protein N of SARS-CoV Urbani / Binding of serum 1b to looped/cyclic peptides of protein N of SARS-CoV Urbani / Binding of serum 2 to looped/cyclic peptides of protein N of SARS-CoV Urbani / Binding of serum 6 to looped/cyclic peptides of protein N of SARS-CoV Urbani / Binding of serum 37 to looped/cyclic peptides of protein N of SARS-CoV Urbani / Binding of serum 62 to looped/cyclic peptides of protein N of SARS-CoV Urbani / Binding of serum London to looped/cyclic peptides of protein N of SARS-CoV Urbani / Binding of serum SARS-green to looped/cyclic peptides of protein N of SARS-CoV Urbani: unit not given here
# [3] = test system: rabbit serum obtained by immunizing a rabbit with the SARS-CoV strain Frankfurt 1; type: binding; parameters: Binding of a rabbit serum to linear peptides / Binding of a rabbit serum to looped peptides / Rabbit serum linear peptides / Rabbit serum looped peptides / Binding of a rabbit serum to linear peptides of protein N of SARS-CoV Urbani (Rabbit serum linear peptides) / Binding of a rabbit serum to looped/cyclic peptides of protein N of SARS-CoV Urbani (Rabbit serum looped peptides): unit not given here
Sequence,Binding of Control Serum Blood-Bank to Looped peptides [1],Binding of Control serum Blood-bank to linear peptides [1],Binding of Control serum LUMC to linear peptides [1],Binding of Control serum LUMC to looped peptides [1],Rabbit serum linear peptides [3],Rabbit serum looped peptides [3],Binding of Control Serum Blood-Bank to Looped peptides of the protein M of SARS-CoV Urbani [1],Binding of Control serum Blood-bank to linear peptides of the protein M of SARS-CoV Urbani [1],Binding of Control serum LUMC to linear peptides of the protein M of SARS-CoV Urbani [1],Binding of Control serum LUMC to looped peptides of the protein M of SARS-CoV Urbani [1],Binding of a rabbit serum to linear peptides [3],Binding of a rabbit serum to looped peptides [3],also measured
AALVFLILCFTIKRK,0.8,0.9,0.7,0.6,0.8,0.6,–,–,–,–,–,–,Binding of serum 1a to linear peptides of protein X4 of SARS-CoV Urbani [2]: 0.7; Binding of serum 1a to looped/cyclic peptides of protein X4 of SARS-CoV Urbani [2]: 0.8; Binding of serum 1b to linear peptides of protein X4 of SARS-CoV Urbani [2]: 0.8; Binding of serum 1b to looped/cyclic peptides of protein X4 of SARS-CoV Urbani [2]: 0.5; Binding of serum 2 to linear peptides of protein X4 of SARS-CoV Urbani [2]: 0.6; Binding of serum 2 to looped/cyclic peptides of protein X4 of SARS-CoV Urbani [2]: 0.7; Binding of serum 6 to linear peptides of protein X4 of SARS-CoV Urbani [2]: 0.8; Binding of serum 6 to looped/cyclic peptides of protein X4 of SARS-CoV Urbani [2]: 0.7; Binding of serum 37 to linear peptides of protein X4 of SARS-CoV Urbani [2]: 0.8; Binding of serum 37 to looped/cyclic peptides of protein X4 of SARS-CoV Urbani [2]: 0.6; Binding of serum 62 to linear peptides of protein X4 of SARS-CoV Urbani [2]: 0.8; Binding of serum 62 to looped/cyclic peptides of protein X4 of SARS-CoV Urbani [2]: 0.7; Binding of serum London to linear peptides of protein X4 of SARS-CoV Urbani [2]: 0.8; Binding of serum London to looped/cyclic peptides of protein X4 of SARS-CoV Urbani [2]: 0.5; Binding of serum SARS-green to linear peptides of protein X4 of SARS-CoV Urbani [2]: 0.7; Binding of serum SARS-green to looped/cyclic peptides of protein X4 of SARS-CoV Urbani [2]: 0.4; Binding of serum SARS-yellow to linear peptides of protein X4 of SARS-CoV Urbani [2]: 0.7; Binding of serum SARS-yellow to looped/cyclic peptides of protein X4 of SARS-CoV Urbani [2]: 0.5
AAVYRINWVTGGIAI,–,–,–,–,0.4,0.4,0.8,0.8,1.0,0.5,–,–,Binding of serum 1a to linear peptides of protein M of SARS-CoV Urbani [2]: 0.9; Binding of serum 1a to looped/cyclic peptides of protein M of SARS-CoV Urbani [2]: 0.6; Binding of serum 1b to linear peptides of protein M of SARS-CoV Urbani [2]: 0.7; Binding of serum 1b to looped/cyclic peptides of protein M of SARS-CoV Urbani [2]: 0.4; Binding of serum 2 to linear peptides of protein M of SARS-CoV Urbani [2]: 0.7; Binding of serum 2 to looped/cyclic peptides of protein M of SARS-CoV Urbani [2]: 0.6; Binding of serum 6 to linear peptides of protein M of SARS-CoV Urbani [2]: 0.5; Binding of serum 6 to looped/cyclic peptides of protein M of SARS-CoV Urbani [2]: 0.5; Binding of serum 37 to linear peptides of protein M of SARS-CoV Urbani [2]: 0.6; Binding of serum 37 to looped/cyclic peptides of protein M of SARS-CoV Urbani [2]: 0.7; Binding of serum 62 to linear peptides of protein M of SARS-CoV Urbani [2]: 0.5; Binding of serum 62 to looped/cyclic peptides of protein M of SARS-CoV Urbani [2]: 0.4; Binding of serum London to linear peptides of protein M of SARS-CoV Urbani [2]: 0.4; Binding of serum London to looped/cyclic peptides of protein M of SARS-CoV Urbani [2]: 0.2; Binding of serum SARS-green to linear peptides of protein M of SARS-CoV Urbani [2]: 0.6; Binding of serum SARS-green to looped/cyclic peptides of protein M of SARS-CoV Urbani [2]: 0.0; Binding of serum SARS-yellow to linear peptides of protein M of SARS-CoV Urbani [2]: 0.3; Binding of serum SARS-yellow to looped/cyclic peptides of protein M of SARS-CoV Urbani [2]: 0.7
AAYNRYRIGNYKLNT,–,–,–,–,0.4,0.6,0.8,0.9,0.8,0.7,–,–,Binding of serum 1a to linear peptides of protein M of SARS-CoV Urbani [2]: 0.7; Binding of serum 1a to looped/cyclic peptides of protein M of SARS-CoV Urbani [2]: 0.7; Binding of serum 1b to linear peptides of protein M of SARS-CoV Urbani [2]: 0.5; Binding of serum 1b to looped/cyclic peptides of protein M of SARS-CoV Urbani [2]: 0.5; Binding of serum 2 to linear peptides of protein M of SARS-CoV Urbani [2]: 0.7; Binding of serum 2 to looped/cyclic peptides of protein M of SARS-CoV Urbani [2]: 0.8; Binding of serum 6 to linear peptides of protein M of SARS-CoV Urbani [2]: 0.8; Binding of serum 6 to looped/cyclic peptides of protein M of SARS-CoV Urbani [2]: 1.3; Binding of serum 37 to linear peptides of protein M of SARS-CoV Urbani [2]: 0.6; Binding of serum 37 to looped/cyclic peptides of protein M of SARS-CoV Urbani [2]: 0.5; Binding of serum 62 to linear peptides of protein M of SARS-CoV Urbani [2]: 0.5; Binding of serum 62 to looped/cyclic peptides of protein M of SARS-CoV Urbani [2]: 0.7; Binding of serum London to linear peptides of protein M of SARS-CoV Urbani [2]: 0.4; Binding of serum London to looped/cyclic peptides of protein M of SARS-CoV Urbani [2]: 0.5; Binding of serum SARS-green to linear peptides of protein M of SARS-CoV Urbani [2]: 0.5; Binding of serum SARS-green to looped/cyclic peptides of protein M of SARS-CoV Urbani [2]: 0.3; Binding of serum SARS-yellow to linear peptides of protein M of SARS-CoV Urbani [2]: 0.2; Binding of serum SARS-yellow to looped/cyclic peptides of protein M of SARS-CoV Urbani [2]: 0.7
YDANYFVCWHTHNYD,0.3,0.7,0.7,0.4,–,–,–,–,–,–,0.1,0.4,–
YHYQECVRGTTVLLK,0.7,0.8,0.7,0.8,1.7,0.6,–,–,–,–,–,–,–
YKLNTDHAGSNDNIA,–,–,–,–,0.1,0.1,0.6,0.6,0.7,0.6,–,–,–
YQIGGYSEDRHSGVK,0.3,0.3,0.4,0.3,–,–,–,–,–,–,0.1,0.5,–
YSRVKNLNSSEGVPD,0.4,0.6,0.8,0.8,–,–,–,–,–,–,0.3,0.0,–
YVYSRVKNLNSSEGV,0.9,0.8,0.6,0.8,–,–,–,–,–,–,1.2,0.5,–
YYKLGASQRVGTDSG,–,–,–,–,0.1,0.0,0.7,1.0,0.8,0.7,–,–,–
